This passage reports IC50 results from patent US11123355B2, “Antiviral benzyl-amine phosphodiamide compounds” (Merck Sharp & Dohme Corp., priority 2016, dated 2021).

Where two headings read alike, the source gives them in different places.

The assay concerns HIV-1 (H9/IIB strain). The experiment in a line: Multiple Round HIV-1 Infection Assay (Viking Assay) in MT4-GFP cells. Format: cell-based. The note with it: inhibition of reproductive ratio R0. As for the experimental part:
Assessing antiviral potency in a Multiple Round HIV-1 Infection Assay (Viking Assay) The antiviral activity of the tenofovir prodrugs of the Examples herein was assessed in an assay that measures the rate of replication of HIV in cell culture, termed the Viking assay (VIral KINetics in Green cells) and performed as follows. HIV-1 replication was monitored using MT4-gag-GFP clone D3 (hereafter designated MT4-GFP), which are MT-4 cells modified to harbor a GFP reporter gene, the expression of which is dependent on the HIV-1 expressed proteins tat and rev. Productive infection of an MT4-GFP cell with HIV-1 results in GFP expression approximately 24 h post-infection. MT4-GFP cells were maintained at 37° C./5% CO2/90% relative humidity in RPMI 1640 supplemented with 10/o fetal bovine serum, 100 U/ml penicillin/streptomycin, and 400 μg/ml G418 to maintain the reporter gene. For infections, MT4-GFP cells were placed in the same medium lacking G418 and infected overnight with HIV-1 (H9/IIB strain) virus at an approximate multiplicity of infection of 0.01 in the same incubation conditions. Cells were then washed and re-suspended in either RPMI 1640 supplemented with 10% or 50% normal human serum (NHS) at 1.6×10^5 cells/mL (10% NHS or 50% NHS, respectively). Compound plates were prepared by dispensing compounds dissolved in DMSO into wells of 384 well poly-D-lysine-coated plates (0.2 μl/well) using an ECHO acoustic dispenser. Each compound was tested in a 10-point serial 3-fold dilution (typical final concentrations: 8.4 μM-0.42 nM). Controls included no inhibitor (DMSO only) and a combination of three antiviral agents (efavirenz, indinavir, an in-house integrase strand transfer inhibitor at final concentrations of 4 μM each). Cells were added (50 μL/well) to compound plates and the infected cells were maintained at 37° C./5% CO2/90% relative humidity.
Infected cells were quantified at two time points, ˜48 h and ˜72 h post-infection, by counting the number of green cells in each well using an Acumen eX3 scanner. The increase in the number of green cells over ˜24 h period gives the reproductive ratio, R0, which is typically 5-15 and has been shown experimentally to be in logarithmic phase (data not shown). Inhibition of R0 is calculated for each well, and IC50s determined by non-linear 4-parameter curve fitting.

[1] abbreviates: MT4-GFP cells infected with HIV-1, 10% normal human serum, read-out: Viking, IC50 (10% NHS).
Where [2] appears, read: MT4-GFP cells infected with HIV-1, 50% normal human serum, read-out: Viking, IC50 (50% NHS).

As usually defined, the IC50 is the concentration needed to halve the response being measured. Consider `CCCOC(=O)C(C)(C)NP(=O)(CO[C@H](C)Cn1cnc2c(N)ncnc21)N(C)[C@H](C)c1ccc(Cl)cc1` (stereo partly drawn) [Example 2A, propyl 2-(((R)-((((R)-1-(6-amino-9H-purin-9-yl)propan-2-yl)oxy)methyl(((R)-1-(4-chlorophenyl)ethyl)(methyl)amino)phosphonyl)amino)-2-methylpropanoate and propyl 2-(((S)-((((R)-1-(6-amino-9H-purin-9-yl)propan-2-yl)oxy)methyl)(((R)-1-(4-chlorophenyl)ethyl)(methyl)amino)phosphoryl)amino)-2-methylpropanoate], for which the IC50 runs as follows: (Human immunodeficiency virus 1, MT4-GFP cells infected with HIV-1, 10% normal human serum, read-out: Viking, IC50 (10% NHS)) 43 nM; (Human immunodeficiency virus 1, MT4-GFP cells infected with HIV-1, 50% normal human serum, read-out: Viking, IC50 (50% NHS)) 130 nM.

Take “propyl 2-(((R)-((((R)-1-(6-amino-9H-purin- 9-yl)propan-2-yl)oxy)methyl)(((S)-1-(p- tolyl)ethyl)amino)phosphoryl)amino)-2- methylpropanoate and propyl 2-(((S)-((((R)-1-(6-amino-9H-purin- 9-yl)propan-2-yl)oxy)methyl)(((S)-1-(p- tolyl)ethyl)amino)phosphoryl)amino)-2- methylpropanoate [Example 18B]”: the IC50 is 37 nM under setting [1] and 520 nM under setting [2].

Take `CCCOC(=O)C(C)(C)NP(=O)(CO[C@H](C)Cn1cnc2c(N)ncnc21)N[C@@H](C)c1ccc(C(F)(F)F)cc1` (stereo partly drawn) [Example 11A, propyl 2-(((R)-((((R)-1-(6-amino-9H-purin-9-yl)propan-2-yl)oxy)methyl)(((S)-1-(4-(trifluoromethyl)phenyl)ethyl)amino)phos-phoryl)amino)-2-methylpropanoate and propyl 2-(((S)-((((R)-1-(6-amino-9H-purin-9-yl)propan-2-yl)oxy)methyl)(((S)-1-(4-(trifluoromethyl)phenyl)ethyl)amino)phosphoryl)amino)-2-methylpropanoate]: the IC50 came out at 4.6 nM under setting [1] and 42 nM under setting [2].

Turning to `CCCOC(=O)C(C)(C)NP(=O)(CO[C@H](C)Cn1cnc2c(N)ncnc21)N[C@H](C)c1ccc(OC(F)(F)F)cc1C` (stereo partly drawn) [Example 21A, Propyl 2-(((R)-((((R)-1-(6-amino-9H-purin-9-yl)propan-2-yl)oxy)methyl)(((R)-1-(2-methyl-4-(trifluoromethoxy)phenyl)ethyl)amino)phos-phoryl)amino)-2-methylpropanoate and propyl 2-(((S)-((((R)-1-(6-amino-9H-purin-9-yl)propan-2-yl)oxy)methyl)(((R)-1-(2-methyl-4-(trifluoromethoxy)phenyl)ethyl)amino)phos-phoryl)amino)-2-methylpropanoate], the IC50 came to 150 nM under setting [1] and 800 nM under setting [2].

As to `CCCOC(=O)C(C)(C)N[P@@](=O)(CO[C@H](C)Cn1cnc2c(N)ncnc21)N[C@H](c1cccc(F)c1)C(F)(F)F` [Example 22B, propyl 2-(((R)-((((R)-1-(6-amino-9H-purin-9-yl)propan-2-yl)oxy)methyl)(((R)-2,2,2-trifluoro-1-(3-fluorophenyl)ethyl)amino)phosphoryl)ami-no)-2-methylpropanoate and propyl 2-(((S)-((((R)-1-(6-amino-9H-purin-9-yl)propan-2-yl)oxy)methyl)(((R)-2,2,2-trifluoro-1-(3-fluorophenyl)ethyl)amino)phosphoryl)ami-no)-2-methylpropanoate], the IC50 under setting [1] was found to be 42 nM and the IC50 under setting [2] was found to be 330 nM.

As to `CCCOC(=O)C(C)(C)NP(=O)(CO[C@H](C)Cn1cnc2c(N)ncnc21)N(C)Cc1ccc(C(C)C)cc1` (stereo partly drawn) [Example 32B, propyl 2-(((R)-((((R)-1-(6-amino-9H-purin-9-yl)propan-2-yl)oxy)methyl)((4-isopropylbenzyl)(methyl)amino)phos-phoryl)amino)-2-methylpropanoate and propyl 2-(((S)-((((R)-1-(6-amino-9H-purin-9-yl)propan-2-yl)oxy)methyl)((4-isopropylbenzyl)(methyl)amino)phos-phoryl)amino)-2-methylpropanoate], the IC50 runs as follows: under setting [1], 10 nM; under setting [2], 41 nM.

Take “propyl 2-(((R)-((((R)-1-(6-amino-9H-purin- 9-yl)propan-2-yl)oxy)methyl)(((R)-2,2,2- trifluoro-1-(p- tolyl)ethyl)amino)phosphoryl)amino)-2- methylpropanoate and propyl 2-(((S)-((((R)-1-(6-amino-9H-purin- 9-yl)propan-2-yl)oxy)methyl)(((R)-2,2,2- trifluoro-1-(p- tolyl)ethyl)amino)phosphoryl)amino)-2- methylpropanoate [Example 26B]”: the IC50 runs as follows: under setting [1], 34 nM; under setting [2], 200 nM.

Take `CCCOC(=O)C(C)(C)N[P@@](=O)(CO[C@H](C)Cn1cnc2c(N)ncnc21)N[C@H](c1ccc(OC(F)(F)F)cc1)C(F)(F)F` (single isomer, unassigned) [Example 27B]: the IC50 reads like this: under setting [1], 52 nM; under setting [2], 250 nM.

In the case of `CCCOC(=O)C(C)(C)N[P@@](=O)(CO[C@H](C)Cn1cnc2c(N)ncnc21)N[C@@H](C)c1ccc(OC)cc1` [Example 14A, propyl 2-(((R)-((((R)-1-(6-amino-9H-purin-9-yl)propan-2-yl)oxy)methyl)(((S)-1-(4-methoxyphenyl)ethyl)amino)phosphoryl)a-mino)-2-methylpropanoate and propyl 2-(((S)-((((R)-1-(6-amino-9H-purin-9-yl)propan-2-yl)oxy)methyl)(((S)-1-(4-methoxyphenyl)ethyl)amino)phosphoryl)a-mino)-2-methylpropanoate], the IC50 is 25 nM under setting [1] and 140 nM under setting [2].

`CC(C)OC(=O)C(C)(C)NP(=O)(CO[C@H](C)Cn1cnc2c(N)ncnc21)N[C@H](C)c1ccc(OC(F)(F)F)cc1` (stereo partly drawn) [Example 34A, isopropyl 2-(((R)-((((R)-1-(6-amino-9H-purin-9-yl)propan-2-yl)oxy)methyl)(((R)-1-(4-(trifluoromethoxy)phenyl)ethyl)amino)phos-phoryl)amino)-2-methylpropanoate and isopropyl 2-(((S)-((((R)-1-(6-amino-9H-purin-9-yl)propan-2-yl)oxy)methyl)(((R)-1-(4-(trifluoromethoxy)phenyl)ethyl)amino)phos-phoryl)amino)-2-methylpropanoate]: the IC50 reads like this: under setting [1], 760 nM; under setting [2], 4200 nM.

Regarding `CCCOC(=O)C(C)(C)NP(=O)(CO[C@H](C)Cn1cnc2c(N)ncnc21)N[C@H](c1cccc(OC)c1)C(F)(F)F` (stereo partly drawn) [Example 25B, propyl 2-(((R)-((((R)-1-(6-amino-9H-purin-9-yl)propan-2-yl)oxy)methyl)(((R)-2,2,2-trifluoro-1-(3-methoxyphenyl)ethyl)amino)phosphoryl)a-mino)-2-methylpropanoate and propyl 2-(((S)-((((R)-1-(6-amino-9H-purin-9-yl)propan-2-yl)oxy)methyl)(((R)-2,2,2-trifluoro-1-(3-methoxyphenyl)ethyl)amino)phosphoryl)a-mino)-2-methylpropanoate], the IC50 under setting [1] came out at 15 nM and the IC50 under setting [2] amounted to 97 nM.

For `CCCOC(=O)C(C)(C)N[P@@](=O)(CO[C@H](C)Cn1cnc2c(N)ncnc21)N[C@@H](C)c1cccc(F)c1` [Example 10A, propyl 2-(((R)-((((R)-1-(6-amino-9H-purin-9-yl)propan-2-yl)oxy)methyl)(((S)-1-(3-fluorophenyl)ethyl)amino)phosphoryl)ami-no)-2-methylpropanoate and propyl 2-(((S)-((((R)-1-(6-amino-9H-purin-9-yl)propan-2-yl)oxy)methyl)(((S)-1-(3-fluorophenyl)ethyl)amino)phosphoryl)ami-no)-2-methylpropanoate], the IC50 runs as follows: under setting [1], 68 nM; under setting [2], 560 nM.

As for `CCCOC(=O)C(C)(C)N[P@@](=O)(CO[C@H](C)Cn1cnc2c(N)ncnc21)N[C@@H](C)c1ccccc1OC` [Example 17A, propyl 2-(((R)-((((R)-1-(6-amino-9H-purin-9-yl)propan-2-yl)oxy)methyl)(((S)-1-(2-methoxyphenyl)ethyl)amino)phosphoryl)a-mino)-2-methylpropanoate and propyl 2-(((S)-((((R)-1-(6-amino-9H-purin-9-yl)propan-2-yl)oxy)methyl)(((S)-1-(2-methoxyphenyl)ethyl)amino)phosphoryl)a-mino)-2-methylpropanoate], the IC50 reads like this: under setting [1], 24 nM; under setting [2], 310 nM.
